Measured values published in patent US11980633B2, “Method for treating cancer using a combination of DNA-damaging agents and DNA-PK inhibitors” (Vertex Pharmaceuticals Incorporated, priority 2016, dated 2024).

Assays:
Format in all cases: cell-based
[1] = system: primary human tumors (NSCLC, SCLC); assay: TCA: Compound B-1 with etoposide, primary lung tumors
Method: (§1) In both studies, cell viability was assessed after 6 days in culture. Statistical analysis of the combination matrix was performed to assess whether synergy, additivity, or antagonism of the combination treatments were observed.
(§2) Materials: Primary patient samples (See Tables 16 and 17, below) were excised from mice when they reached 500 mg to 1000 mg in size and processed immediately, or after overnight shipment. Tumors were serially passaged by subcutaneous implantation of 50 mg to 150 mg fragments into the flanks of immunocompromised (nude) mice. Tumors were used within the first 5 or 7 passages.
(§3) Tumor Chemosensitivity Assay (TCA): Primary tumor samples were grown and serially passaged in immunocompromised mice. Tumors were mechanically dissociated into small fragments (1 mm to 2 mm) with scalpels in phosphate buffered saline (PBS or RPMI) and centrifuged at 200×g for 5 minutes at room temperature in 50 mL centrifuge tubes. Samples were resuspended in 10 mL of cell dissociation reagent and enzymatically digested with mechanical agitation for 1 to 3 hours at 37° C., 5% CO2 to a single cell suspension. Ten mL of complete RPMI-1640 media was added to the cell mixture and pipetted up and down 4 to 5 times. The mixture was then passed through a 70 μm or 100 μm mesh strainer to remove undigested tumor. The filtrate was then centrifuged 200×g for 5 minutes at room temperature and resuspended in 20 mL complete RPMI-1640. This cell suspension was slowly layered onto 20 mL of room temperature Histopaque and centrifuged at 400×g for 15 minutes at room temperature without a brake. The interface was transferred to a new 50 mL centrifuge tube and 15 mL of complete RPMI-1640 was added. This suspension was centrifuged at 200×g at room temperature, and the resulting pellet was resuspended in 10 mL of complete PC-1 media, except for pancreatic tumors in which case Pancreatic Medium was used. Cells were diluted in Trypan blue, and viable cells that excluded the dye were counted. Only the larger, tumor cells were included in the cell count. Cells were diluted in complete PC-1 or Pancreatic media, as appropriate for the cells, and were plated at 15,000 to 20,000 cells per well in 100-135 μL in ultra-low attachment U-bottom plates.
(§4) Compound Addition: For these studies, a 10 mM stock of the DNA-PK inhibitor (Compound B-1 or Compound B-2) was made in DMSO and used to add to cells from most tumors with HP D300 Digital Dispenser (Tecan US, Morrisville, NC, USA), or diluted into the appropriate media (PC-1 or pancreatic media) as a 5-10× stock and added to cells (OVX001 and ENX001, 005). PC-1, pancreatic media, and chemotherapeutics were also added so that final well volume was 150 μL. Doxorubicin was made as DMSO stock of 1 or 10 mM and added to cells for most tumors with HP D300 Digital Dispenser, or diluted into PC-1 as 5-10× stock and added to cells (OVX001 and ENX001, 005). Cisplatin (cis-diammine platinum(II), dichloride) was prepared fresh to 10 mM in warm (60° C.) distilled water and diluted in PC-1 as a 5-10× stock. […] Different starting concentrations, dose ranges, and number of doses were used for each experiment based on the response data available at the time.
(§5) For bleomycin experiments, combinations with Compound B-1 at all concentrations were run in triplicate. A 6×3 matrix was designed on one plate, consisting of a 2-point concentration range of 0.73 μM and 2.2 μM Compound B-1 plus no treatment control, in 3 columns each of 6 wells. Bleomycin (plus ‘no treatment’ control) was added to 9 wells in rows of this plate. Similar 6×3 matrices were set up for additional agents with different starting concentrations for compound dilutions. For cisplatin experiments the starting concentration was 30 μM which was diluted 1:3. […] For doxorubicin hydrochloride experiments the starting concentration was 5 μM doxorubicin which was diluted 1:3. For gemcitabine experiments the starting concentration was 5 μM gemcitabine which was diluted 1:3. […]

[2] = system: primary human tumors (esophageal, gastric); assay: TCA: Compound B-1 with carboplatin, primary tumors
Method: as §1, §2, §3, §4, §5

[3] = system: primary human pancreatic tumors; assay: TCA: Compound B-1 with gemcitabine, primary pancreatic tumors
Method: as §1, §2, §3, §4, §5

CNC(=O)c1ccnc2c([C@H](C)CNc3cc(-c4cnc(C)nc4)ncn3)cccc12 [Compound B-1]
tumors that showed strong synergy [1]: 100% | Average Bliss score ([1]; tumor LUX013, Lung (SCLC)): 15 | Synergy/Additivity/Antagonism ([1]; tumor LUX013, Lung (SCLC)): Strongly Synergistic (greater than 10 are considered strongly synergistic) | Average Bliss score ([1]; tumor LUX031, Lung (SCLC)): 16 | Synergy/Additivity/Antagonism ([1]; tumor LUX031, Lung (SCLC)): Strongly Synergistic (greater than 10 are considered strongly synergistic) | Average Bliss score ([1]; tumor OD26749, Lung (NSCLC)): 19 | Synergy/Additivity/Antagonism ([1]; tumor OD26749, Lung (NSCLC)): Strongly Synergistic (greater than 10 are considered strongly synergistic) | Average Bliss score ([1]; tumor OD29498, Lung (NSCLC)): 13 | Synergy/Additivity/Antagonism ([1]; tumor OD29498, Lung (NSCLC)): Strongly Synergistic (greater than 10 are considered strongly synergistic) | tumors that showed synergy or additivity ([2]; 5 tumors): 100% | Average Bliss score ([2]; tumor ESX005, Esophageal): 3 | Synergy/Additivity/Antagonism ([2]; tumor ESX005, Esophageal): Additive (Values between 5 and −5 are considered additive) | Average Bliss score ([2]; tumor ESX008, Esophageal): 5 | Synergy/Additivity/Antagonism ([2]; tumor ESX008, Esophageal): Synergistic (greater than 5 are considered synergistic) | Average Bliss score ([2]; tumor GAX001, Gastric): 2 | Synergy/Additivity/Antagonism ([2]; tumor GAX001, Gastric): Additive (Values between 5 and −5 are considered additive) | Average Bliss score ([2]; tumor GAX007, Gastric): 4 | Synergy/Additivity/Antagonism ([2]; tumor GAX007, Gastric): Additive (Values between 5 and −5 are considered additive) | Average Bliss score ([2]; tumor GAX027, Gastric): 4 | Synergy/Additivity/Antagonism ([2]; tumor GAX027, Gastric): Additive (Values between 5 and −5 are considered additive) | tumors that showed additivity ([3]; 2 of 4 pancreatic tumors): 50% | tumors that showed antagonism ([3]; 2 of 4 pancreatic tumors): 50% | Average Bliss score ([3]; tumor P110325, Pancreatic): −9 | Synergy/Additivity/Antagonism ([3]; tumor P110325, Pancreatic): Antagonistic (less than −5 are considered antagonistic) | Average Bliss score ([3]; tumor P110413, Pancreatic): −1 | Synergy/Additivity/Antagonism ([3]; tumor P110413, Pancreatic): Additive (Values between 5 and −5 are considered additive) | Average Bliss score ([3]; tumor P110504, Pancreatic): −6 | Synergy/Additivity/Antagonism ([3]; tumor P110504, Pancreatic): Antagonistic (less than −5 are considered antagonistic) | Average Bliss score ([3]; tumor P110603, Pancreatic): −2 | Synergy/Additivity/Antagonism ([3]; tumor P110603, Pancreatic): Additive (Values between 5 and −5 are considered additive)
